Patent publication US20260325685A1, “Radiopharmaceutical Compositions Targeting Carbonic Anhydrase IX and Uses Thereof” (RayzeBio, Inc., priority 2023, published 2026)
pKd: −log10 of the molar value. Where two headings read alike, the source gives them in different places.

Assays:
human CA-IX = molecular target: T1, human CA-IX (Homo sapiens, UniProt Q16790); test: Surface Plasmon Resonance (SPR) binding kinetics to recombinant human CA-IX (Biacore 8K, single-cycle kinetics, 1:1 binding model)
T1 construct: purchased Acro CA9-H82E3
Method in brief: (§1)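 Streptavidin capture, 1200-1800 RU; capture injection 180 s (CA-IX) vs 75 s (CA-XII). Analyte 100-0.39 nM, 9 conc., PBS-P+ pH 7.4 + 1% DMSO, 25° C. On 120 s, off 1200 s; ka/kd after reference subtraction and DMSO correction.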

human CA-XII = molecular target: T2, human CA-XII (Homo sapiens, UniProt O43570); test: Surface Plasmon Resonance (SPR) binding kinetics to recombinant human CA-XII (Biacore 8K, single-cycle kinetics, 1:1 binding model)
T2 construct: purchased Creative BioMart CA12-261H
T2 sequence (O43570 25-354): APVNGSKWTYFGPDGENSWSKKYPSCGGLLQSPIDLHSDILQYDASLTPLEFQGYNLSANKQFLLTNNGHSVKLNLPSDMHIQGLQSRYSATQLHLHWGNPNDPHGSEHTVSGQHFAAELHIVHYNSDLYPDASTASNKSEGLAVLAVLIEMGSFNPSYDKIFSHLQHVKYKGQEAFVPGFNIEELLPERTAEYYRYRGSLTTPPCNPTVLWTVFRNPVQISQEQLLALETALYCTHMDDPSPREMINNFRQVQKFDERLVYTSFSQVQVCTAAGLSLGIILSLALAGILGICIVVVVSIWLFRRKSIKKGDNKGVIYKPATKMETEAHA
Method in brief: as §1

[1] = Chelated Metal: Lu-175; SPR, 25° C., pH 7.4; read-out: CAIX KD
[2] = Chelated Metal: Lu-175, 25° C., pH 7.4, read-out: CAXII KD
[3] = Chelated Metal: None; SPR, 25° C., pH 7.4; read-out: CAIX KD
[4] = Chelated Metal: None, 25° C., pH 7.4, read-out: CAXII KD

| SMILES | pKd (human CA-IX; [1]) | pKd (human CA-XII; [2]) | other results |
| --- | --- | --- | --- |
| CCCCNc1c(F)c(S(N)(=O)=O)c(F)c(F)c1S(=O)(=O)CCOCc1cn(CCNC(=O)[C@H]2CN(C(=O)CN3CCN(CC(=O)O)CCN(CC(=O)O)CCN(CC(=O)O)CC3)CCN2C(=O)C[C@H](NC(=O)[C@@H]2COCCN2C(=O)CCC(C)(c2ccc(O)cc2)c2ccc(O)cc2)C(=O)O)nn1.[Lu+3] [Compound 107.15] | 8.60 to 9.00 | < 8.00 | – |
| NS(=O)(=O)c1nnc(NC(=O)C23CC(c4cn(CCNC(=O)[C@@H]5CN(C(=O)CN6CCN(CC(=O)O)CCN(CC(=O)O)CCN(CC(=O)O)CC6)CCN5C(=O)C[C@H](NC(=O)C[C@H](NC(=O)c5ccc(C6(C(F)(F)F)CC6)cc5)C(=O)O)C(=O)O)nn4)(C2)C3)s1.[Lu+3] [Compound 109.24] | 8.60 to 9.00 | 8.00 to 8.60 | – |
| CC(CCCC(=O)N1CCC(C(N)=O)(C(=O)NCC(=O)NC2(C(=O)NCCn3cc(C45CC(c6cn7nc(S(N)(=O)=O)sc7n6)(C4)C5)nn3)CCN(C(=O)CN3CCN(CC(=O)O)CCN(CC(=O)O)CCN(CC(=O)O)CC3)CC2)CC1)(c1ccc(O)cc1)c1ccc(O)cc1.[Lu+3] [Compound 117.5] | > 9.00 | 8.00 to 8.60 | – |
| CC(CCC(=O)N[C@@H](CC(=O)N[C@@H](CC(=O)N[C@@H](CCCCn1nnc(C(=O)O)c1C12CCC(C(=O)Nc3nnc(S(N)(=O)=O)s3)(CC1)CC2)C(=O)NCCOCCOCCNC(=O)CN1CCN(CC(=O)O)CCN(CC(=O)O)CCN(CC(=O)O)CC1)C(=O)O)C(=O)O)(c1ccc(O)cc1)c1ccc(O)cc1.[Lu+3] [Compound 122] | – | – | pKd (human CA-IX; read-out: CAIX KD; Chelated Metal: Lu-175; SPR, 25° C., pH 7.4): 8.60 to 9.00; pKd (human CA-XII; read-out: CAXII KD, Chelated Metal: Lu-175, 25° C., pH 7.4): 8.60 to 9.00 |
| CC(CCC(=O)N[C@@H](CC(=O)N[C@@H](CC(=O)NC1(CCCCn2cc(CCCCC(=O)Nc3nnc(S(N)(=O)=O)s3)nn2)CCN(C(=O)OCCOCCNC(=O)CN2CCN(CC(=O)O)CCN(CC(=O)O)CCN(CC(=O)O)CC2)CC1)C(=O)O)C(=O)O)(c1ccc(O)cc1)c1ccc(O)cc1.[Lu+3] [Compound 116.1] | 8.60 to 9.00 | 8.00 to 8.60 | – |
| CC(CCC(=O)N[C@@H](CC(=O)N[C@@H](CC(=O)N[C@@H](CCCn1cc(C23CCC(C(=O)Nc4nnc(S(N)(=O)=O)s4)(CC2)C3)nn1)C(=O)NCCOCCOCCNC(=O)CN1CCN(CC(=O)O)CCN(CC(=O)O)CCN(CC(=O)O)CC1)C(=O)O)C(=O)O)(c1ccc(O)cc1)c1ccc(O)cc1.[Lu+3] [Compound 100.5] | > 9.00 | > 9.00 | – |
| N[C@@H](CC(=O)N[C@@H](CC(=O)N1CCN(C(=O)CN2CCN(CC(=O)O)CCN(CC(=O)O)CCN(CC(=O)O)CC2)C[C@H]1C(=O)NCCn1cc(C23CC(C(=O)Nc4nnc(S(N)(=O)=O)s4)(C2)C3)nn1)C(=O)O)C(=O)O.[Lu+3] [Compound 109.13] | > 9.00 | 8.00 to 8.60 | – |
| NS(=O)(=O)c1nnc(NC(=O)C23CC(c4cn(CCNC(=O)[C@@H]5CN(C(=O)CN6CCN(CC(=O)O)CCN(CC(=O)O)CCN(CC(=O)O)CC6)CCN5C(=O)C[C@H](NC(=O)C[C@H](NC(=O)c5ccc(C6CC6)nc5)C(=O)O)C(=O)O)nn4)(C2)C3)s1.[Lu+3] [Compound 109.12] | 8.60 to 9.00 | 8.00 to 8.60 | – |
| CC(CCC(=O)N1CCOC[C@H]1C(=O)N[C@@H](CC(=O)N1CCN(C(=O)CN2CCN(CC(=O)O)CCN(CC(=O)O)CCN(CC(=O)O)CC2)C[C@@H]1C(=O)NCCn1cc(C23CC(C(=O)Nc4nnc(S(N)(=O)=O)s4)(C2)C3)nn1)C(N)=O)(c1ccc(O)cc1)c1ccc(O)cc1.[Lu+3] [Compound 107.19] | 8.60 to 9.00 | < 8.00 | – |
| NS(=O)(=O)c1nnc(NC(=O)C23CC(c4cn(CCNC(=O)[C@@H]5CN(C(=O)CN6CCN(CC(=O)O)CCN(CC(=O)O)CCN(CC(=O)O)CC6)CCN5C(=O)C[C@H](Nc5ncc(C(=O)NCCc6ccc(C7CC7)cc6)cn5)C(=O)O)nn4)(C2)C3)s1.[Lu+3] [Compound 111.11] | 8.60 to 9.00 | < 8.00 | – |
| NS(=O)(=O)c1nnc(NC(=O)C23CC(c4cn(CCNC(=O)[C@@H]5CN(C(=O)CN6CCN(CC(=O)O)CCN(CC(=O)O)CCN(CC(=O)O)CC6)CCN5C(=O)CNC(=O)C5(C(=O)O)CCN(C(=O)c6ccc(C7CC7)cc6)CC5)nn4)(C2)C3)s1.[Lu+3] [Compound 112.9] | > 9.00 | < 8.00 | – |
| CC(CCCC(=O)N1CCC(C(N)=O)(C(=O)NCC(=O)NC2(C(=O)NCCn3cc(C45CC(C(=O)Nc6nnc(S(N)(=O)=O)s6)(C4)C5)nn3)CCN(C(=O)CC[C@H](C(=O)O)N3CCN(CC(=O)O)CCN(CC(=O)O)CCN(CC(=O)O)CC3)CC2)CC1)(c1ccc(O)cc1)c1ccc(O)cc1.[Lu+3] [Compound 127.4] | > 9.00 | < 8.00 | – |
| CC(CCC(=O)N[C@@H](CC(=O)N[C@@H](CC(=O)N[C@@H](CCCn1cc(C23CCC(C(=O)Nc4nnc(S(N)(=O)=O)s4)(CC2)CC3)nn1)C(=O)NCCOCCOCCNC(=O)CN1CCN(CC(=O)O)CCN(CC(=O)O)CCN(CC(=O)O)CC1)C(=O)O)C(=O)O)(c1ccc(O)cc1)c1ccc(O)cc1.[Lu+3] [Compound 100.7] | > 9.00 | 8.60 to 9.00 | – |
| CC(CCC(=O)N[C@@H](CC(=O)N[C@@H](CC(=O)N1CCN(C(=O)CCOCCOCCOCCOCCN(CCOCCOCCOCCOCCC(=O)N2CCN(C(=O)C[C@H](NC(=O)C[C@H](NC(=O)CCC(C)(c3ccc(O)cc3)c3ccc(O)cc3)C(=O)O)C(=O)O)[C@H](C(=O)NCCn3cc(C45CC(C(=O)Nc6nnc(S(N)(=O)=O)s6)(C4)C5)nn3)C2)C(=O)CNC(=O)CN2CCN(CC(=O)O)CCN(CC(=O)O)CCN(CC(=O)O)CC2)C[C@H]1C(=O)NCCn1cc(C23CC(C(=O)Nc4nnc(S(N)(=O)=O)s4)(C2)C3)nn1)C(=O)O)C(=O)O)(c1ccc(O)cc1)c1ccc(O)cc1 [Compound 131.2] | – | – | pKd (human CA-IX; [3]): > 9.00; pKd (human CA-XII; [4]): > 9.00 |
| NS(=O)(=O)c1nnc(NC(=O)C23CC(c4cn(C[C@H]5CN(C(=O)CN6CCN(CC(=O)O)CCN(CC(=O)O)CCN(CC(=O)O)CC6)CCN5C(=O)[C@@H]5COCCN5C(=O)Cc5n[nH]c6ccccc56)nn4)(C2)C3)s1.[Lu+3] [Compound 114.2] | 8.60 to 9.00 | < 8.00 | – |
| NS(=O)(=O)c1nnc(NC(=O)C23CC(c4cn(CCNC(=O)[C@@H]5CN(C(=O)CN6CCN(CC(=O)O)CCN(CC(=O)O)CCN(CC(=O)O)CC6)CCN5C(=O)C[C@H](NC(=O)C[C@H](NC(=O)c5n[nH]nc5C(F)(F)F)C(=O)O)C(=O)O)nn4)(C2)C3)s1.[Lu+3] [Compound 109.28] | > 9.00 | 8.60 to 9.00 | – |
| CC(CCC(=O)N[C@H](CC(=O)N[C@H](CC(=O)N1CCN(C(=O)CN2CCN(CC(=O)O)CCN(CC(=O)O)CCN(CC(=O)O)CC2)C[C@H]1C(=O)NCCn1cc(C23CC(C(=O)Nc4nnc(S(N)(=O)=O)s4)(C2)C3)nn1)C(=O)O)C(=O)O)(c1ccc(O)cc1)c1ccc(O)cc1.[Lu+3] [Compound 107.21] | 8.60 to 9.00 | < 8.00 | – |
| CC(CCC(=O)N[C@@H](CC(=O)N[C@@H](CC(=O)N1CCN(C(=O)CN2CCN(CC(=O)O)CCN(CC(=O)O)CCN(CC(=O)O)CC2)C[C@H]1C(=O)NCCn1cc(C23CC(C(=O)Nc4nnc(S(N)(=O)=O)s4)(C2)C3)nn1)C(=O)O)C(=O)O)(c1ccccc1)c1ccc(O)cc1.[Lu+3] (stereo partly drawn) [Compound 109.33] | 8.60 to 9.00 | < 8.00 | – |
| CC(CCC(=O)N[C@@H](CC(=O)N[C@@H](CC(=O)N1CCN(C(=O)CN2CCN(CC(=O)O)CCN(CC(=O)O)CCN(CC(=O)O)CC2)C[C@H]1C(=O)NCCn1cc(-c2ccc(-c3cn4nc(S(N)(=O)=O)sc4n3)cc2)nn1)C(=O)O)C(=O)O)(c1ccc(O)cc1)c1ccc(O)cc1.[Lu+3] [Compound 107.28] | > 9.00 | > 9.00 | – |
| NS(=O)(=O)c1nnc(NC(=O)C23CC(c4cn(CCNC(=O)[C@H]5CN(C(=O)CN6CCN(CC(=O)O)CCN(CC(=O)O)CCN(CC(=O)O)CC6)CCN5C(=O)[C@@H]5COCCN5C(=O)Cc5n[nH]c6ccccc56)nn4)(C2)C3)s1.[Lu+3] [Compound 107.18] | 8.00 to 8.60 | < 8.00 | – |
| CCCCNc1c(F)c(S(N)(=O)=O)c(F)c(F)c1S(=O)(=O)CCOCc1cn(CCNC(=O)[C@H]2CN(C(=O)CN3CCN(CC(=O)O)CCN(CC(=O)O)CCN(CC(=O)O)CC3)CCN2C(=O)C[C@H](NC(=O)[C@@H]2COCCN2C(=O)CCCc2ccc(O)cc2)C(=O)O)nn1.[Lu+3] [Compound 107.54] | 8.00 to 8.60 | < 8.00 | – |
| CC(CCC(=O)N[C@@H](CC(=O)N[C@@H](CC(=O)N1CCN(C(=O)CN2CCN(CC(=O)O)CCN(CC(=O)O)CCN(CC(=O)O)CC2)C[C@H]1C(=O)NCCn1cc(-c2ccc(C(=O)Nc3nnc(S(N)(=O)=O)s3)cc2)nn1)C(=O)O)C(=O)O)(c1ccc(O)cc1)c1ccc(O)cc1.[Lu+3] [Compound 107.22] | 8.60 to 9.00 | < 8.00 | – |
| NS(=O)(=O)c1nnc(NC(=O)C23CC(c4cn(CCNC(=O)[C@@H]5CN(C(=O)CN6CCN(CC(=O)O)CCN(CC(=O)O)CCN(CC(=O)O)CC6)CCN5C(=O)C[C@H](Nc5ncc(C(=O)NCCc6ccc(C(F)(F)F)cc6)cn5)C(=O)O)nn4)(C2)C3)s1.[Lu+3] [Compound 111.7] | 8.00 to 8.60 | < 8.00 | – |
| CC(CCCC(=O)N1CCC(C(=O)O)(C(=O)NCC(=O)NC2(C(=O)NCCn3cc(C45CC(C(=O)Nc6nnc(S(N)(=O)=O)s6)(C4)C5)nn3)CCN(C(=O)CN3CCN(CC(=O)O)CCN(CC(=O)O)CCN(CC(=O)O)CC3)CC2)CC1)(c1ccc(O)cc1)c1ccc(O)cc1.[Lu+3] (single isomer, unassigned) [Compound 117.1] | > 9.00 | < 8.00 | – |
| NS(=O)(=O)c1nnc(NC(=O)C23CC(c4cn(CCNC(=O)[C@@H]5CN(C(=O)CN6CCN(CC(=O)O)CCN(CC(=O)O)CCN(CC(=O)O)CC6)CCN5C(=O)C[C@H](NC(=O)C[C@H](NC(=O)Cc5ccc(C6CC6)cc5)C(=O)O)C(=O)O)nn4)(C2)C3)s1 [Compound 109.63] | – | – | pKd (human CA-IX; [3]): > 9.00; Ratio (CAXII/CAIX) (human CA-IX; KD ratio CAXII/CAIX; Chelated Metal: None): *** (10 < *** ≤ 50); pKd (human CA-XII; [4]): 8.00 to 8.60 |
